In ChEMBL document CHEMBL1134487, “Design, synthesis, and biological evaluation of analogues of the antitumor agent, 2-(4-[(7-chloro-2-quinoxalinyl)oxy]phenoxy)propionic acid (XK469)” (2001):
Active and inactive are the calls of the source. The calls are words filed in the database; no cut-off is given here.

Tests used:
Mus musculus [1] = test: In vivo activity against transplanted Mam-16/C/ Taxol tumors of mice; Not active; type: functional, organism-based
Mus musculus [2] = test: In vivo activity against iv transplanted AML Leukemia 1498 tumors of mice; type: functional, organism-based
Mus musculus [3] = test: In vivo activity against iv transplanted Leukemia L1210 tumors of mice; type: functional, organism-based
Mus musculus [4] = test: In vivo activity against transplanted Mam-16/C tumors of mice; type: functional, organism-based
Mus musculus [5] = test: In vivo activity against transplanted Mam-16/C/Adr tumors of mice; type: functional, organism-based
Mus musculus [6] = test: In vivo activity against transplanted Mam-17/Adr tumors of mice; type: functional, organism-based
Mus musculus [7] = test: In vivo activity against transplanted Panc-02 tumors of mice; type: functional, organism-based
Mus musculus [8] = test: In vivo activity against transplanted Panc-03 tumors of mice; type: functional, organism-based
Mus musculus [9] = test: In vivo activity against transplanted Squam lung-LC12 tumors of mice; type: functional, organism-based
Mus musculus [10] = test: In vivo activity against transplanted colon-26 tumors of mice; type: functional, organism-based
Mus musculus [11] = test: In vivo activity against transplanted colon-38 tumors of mice; type: functional, organism-based
Mus musculus [12] = test: In vivo activity against transplanted colon-51 tumors of mice; type: functional, organism-based
Mus musculus [13] = test: In vivo activity against transplanted Mel-B16 tumors of mice; type: functional, organism-based
Mus musculus [14] = test: In vivo activity against transplanted Mam-17 tumors of mice; type: functional, organism-based
Mus musculus [15] = test: In vivo activity against transplanted Mam-16/C/Taxol tumors of mice; type: functional, organism-based
Mus musculus [16] = test: In vivo antitumor activity against tumor […]; Inactive; type: functional, organism-based
Mus musculus [17] = test: In vivo activity against iv transplanted AML Leukemia 1498 tumors of mice; Not active; type: functional, organism-based
Mus musculus [18] = test: In vivo activity against iv transplanted Leukemia L1210 tumors of mice; Not active; type: functional, organism-based
Mus musculus [19] = test: In vivo activity against transplanted Mam-16/C/Adr tumors of mice; Not active; type: functional, organism-based
Mus musculus [20] = test: In vivo activity against transplanted Mam-17 tumors of mice; Not active; type: functional, organism-based
Mus musculus [21] = test: In vivo activity against transplanted Mam-17/Adr tumors of mice; Not active; type: functional, organism-based
Mus musculus [22] = test: In vivo activity against transplanted colon-26 tumors of mice; Not active; type: functional, organism-based
Mus musculus [23] = test: In vivo activity tested against C3H mice bearing mammary adenocarcinoma -17/ADR tumor measured as body weight loss at 301 mg/kg (po); type: functional
Mus musculus [24] = test: In vivo activity tested against C3H mice bearing mammary adenocarcinoma -17/ADR tumor measured as % treated/control calculated at 301 mg/kg (po); type: functional
Mus musculus [25] = test: In vivo activity tested against C3H mice bearing mammary adenocarcinoma -17/ADR tumor measured as activity rating at 301 mg/kg (po); type: functional
Mus musculus [26] = test: In vivo activity tested against C3H mice bearing mammary adenocarcinoma -17/ADR tumor measured as log Kill value was based on tumors that grew at 301 mg/kg (po); type: functional, organism-based; parameters: dose 301 mg/kg
Mus musculus [27] = test: In vivo activity against transplanted Mam-16/C/ Taxol tumors of mice; type: functional, organism-based

Compound | NA (Mus musculus [1]) | Log kill (Mus musculus [2]) | Log kill (Mus musculus [3]) | Log kill (Mus musculus [4]) | Log kill (Mus musculus [5]) | Log kill (Mus musculus [6]) | Log kill (Mus musculus [7]) | Log kill (Mus musculus [8]) | Log kill (Mus musculus [9]) | Log kill (Mus musculus [10]) | Log kill (Mus musculus [11]) | Log kill (Mus musculus [12]) | Log kill (Mus musculus [13]) | Log kill (Mus musculus [14]) | other results
O=c1[nH]cc(F)c(=O)[nH]1 | inactive | 1.2 | 4.9 | 2.8 | 2.8 | < 0.7 | < 0.7 | 1.2 | < 0.7 | 1.9 | 2.8 | < 0.7 | 1.9 | 1.2 | –
COc1cccc2c1C(=O)c1c(O)c3c(c(O)c1C2=O)C[C@@](O)(C(=O)CO)C[C@@H]3O[C@H]1C[C@H](N)[C@H](O)[C@H](C)O1 | – | > 2.8 | 1.9 | > 2.8 | 0.7 | < 0.7 | < 0.7 | 2.8 | > 2.8 | 0.7 | 1.9 | 0.7 | 0.7 | > 2.8 | Log kill (Mus musculus [15]): 2.8
CC(Oc1ccc(Sc2cnc3ccc(Cl)cc3n2)cc1)C(=O)O (centres undefined) | – | – | – | – | – | – | – | – | – | – | – | – | – | – | NA (Mus musculus [16]): inactive
CC[C@@]1(O)C(=O)OCc2c1cc1n(c2=O)Cc2cc3ccccc3nc2-1 | inactive | – | – | 2.8 | – | – | < 0.7 | > 2.8 | < 0.7 | – | 1.2 | 1.2 | 1.2 | – | NA (Mus musculus [17]): inactive; NA (Mus musculus [18]): inactive; NA (Mus musculus [19]): inactive; NA (Mus musculus [20]): inactive; NA (Mus musculus [21]): inactive; NA (Mus musculus [22]): inactive
C[C@@H](Oc1ccc(Oc2cnc3ccc(Cl)cc3n2)cc1)C(=O)O [R(+)XK469] | – | – | – | – | – | – | – | – | – | – | – | – | – | – | Body weight loss (Mus musculus [23]): -8%; T/C (Mus musculus [24]): 2%; Activity rating (Mus musculus [25]): >2.8; Log kill (Mus musculus [26]): 2.9
CC(Oc1ccc(Nc2cnc3ccc(Cl)cc3n2)cc1)C(=O)O (centres undefined) | – | – | – | – | – | – | – | – | – | – | – | – | – | – | NA (Mus musculus [16]): inactive
CISPLATIN | inactive | – | 2.9 | 1.2 | 1.2 | > 2.8 | < 0.7 | 1.9 | > 2.8 | 1.9 | 0.7 | 1.9 | 1.9 | 2.8 | NA (Mus musculus [17]): inactive
CC[C@]1(O)C[C@@H]2CN(CCc3c([nH]c4ccccc34)[C@@](C(=O)OC)(c3cc4c(cc3OC)N(C)[C@H]3[C@@](O)(C(=O)OC)[C@H](OC(C)=O)[C@]5(CC)C=CCN6CC[C@]43[C@@H]65)C2)C1 | – | < 0.7 | 1.9 | 1.9 | < 0.7 | < 0.7 | < 0.7 | < 0.7 | < 0.7 | < 0.7 | 2.8 | < 0.7 | < 0.7 | < 0.7 | Log kill (Mus musculus [27]): < 0.7
CC(=O)O[C@H]1C(=O)[C@@]2(C)[C@H]([C@H](OC(=O)c3ccccc3)[C@]3(O)C[C@H](OC(=O)[C@H](O)[C@@H](NC(=O)c4ccccc4)c4ccccc4)C(C)=C1C3(C)C)[C@]1(OC(C)=O)CO[C@@H]1C[C@@H]2O | – | < 0.7 | < 1 | > 2.8 | < 0.7 | < 0.7 | < 0.7 | > 2.8 | < 0.7 | 0.7 | > 2.8 | 1.2 | 0.7 | > 2.8 | Log kill (Mus musculus [27]): < 0.7
Nc1ccn([C@@H]2O[C@H](CO)[C@@H](O)[C@@H]2O)c(=O)n1 | inactive | > 2.8 | > 5 | 1.9 | – | 2.8 | < 0.7 | < 0.7 | < 0.7 | < 0.7 | 1.9 | < 0.7 | < 0.7 | 1.9 | NA (Mus musculus [19]): inactive
CC(Oc1cnc2ccc(Cl)cc2n1)C(=O)O (centres undefined) | – | – | – | – | – | – | – | – | – | – | – | – | – | – | NA (Mus musculus [16]): inactive
COc1cc([C@@H]2c3cc4c(cc3[C@@H](O[C@@H]3O[C@@H]5CO[C@@H](C)O[C@H]5[C@H](O)[C@H]3O)[C@H]3COC(=O)[C@H]23)OCO4)cc(OC)c1O | – | – | > 5 | 2.8 | < 0.7 | < 0.7 | < 0.7 | 1.9 | > 2.8 | < 0.7 | 1.9 | 0.7 | < 0.7 | 1.9 | NA (Mus musculus [17]): inactive; Log kill (Mus musculus [27]): 1.2
